Results published in patent US20180296537A1, “METHODS AND COMPOSITIONS FOR DIAGNOSING, TREATING, AND MONITORING TREATMENT OF SHANK3 DEFICIENCY ASSOCIATED DISORDERS” (Novartis AG, priority 2015, published 2018).
Where a SMILES comes first, the peptide text is derived from it. The star is where a group is joined. Cbz = O=C(OCc1ccccc1)*

Legend:
CA1 pyramidal neurons = experiment: Dendritic spine density in hippocampal organotypic slice cultures; assay type: cell-based, mouse
Experimental: Wilde type (C57B1/6) mice were housed in a temperature-controlled room and maintained on a 12 hr light/dark cycle. Food and water were available ad libitum and experiments were carried out in accordance with the local authorization guidelines for the care and use of laboratory animals. Slice cultures were established according to the procedure described by Stoppini and colleagues (Galimberti et al., 2006; Stoppini et al., 1991). […] For organotypic slice cultures, brains of P6-P9 transgenic mice were dissected in cold MEM (GIBCO) medium, and hippocampal coronal sections of 400 μm were obtained with a tissue chopper (McIlwain). Slices were selected, placed on Millicell (Millipore, PICM03050) and cultured in 6-well dishes at 35° C. and 5% CO2 in the presence of 1 ml of medium. The entire slice isolation procedure took about 30 min. The culture medium was exchanged every third day. Treatments were performed in fresh culture medium for the indicated time periods.
Brain slices were transfected with plasmids encoding shCont, and shShank3 using helios gene gun system (Bio-Rad Laboratories, #165-2431) as previously described (Proenca et al., 2013). Subsequently, slices were fixed, stained, mounted, and analyzed following the protocols described below in the immunohistochemistry and microscopy paragraphs.
Slices were fixed for 10 minutes in 4% PFA, washed in PBS and blocked for 4 hr at room temperature in 0.3% Triton X-100 20% Horse Serum/PBS (blocking solution). GFP primary antibody was incubated for 24 hr at 4° C. in the blocking solution. Afterwards, slices were washed in PBS, incubated for 2 hr in 0.3% Triton X-100/PBS with Alexa Fluor® 488 Donkey anti-chicken secondary antibody (Life technologies). Finally, slices were washed in PBS, incubated 10 minutes with DAPI (Life technologies) and mounted on glass slides using ProLong mountant (Life technologies).
High resolution images were acquired on an upright Zeiss LSM700 confocal microscope, using a Plan-Neofluar 100×/1.3 oil immersion objective. For the analysis of dendritic spine density, confocal 3D stacks were acquired in CA1 region for each experiment. To quantify spine density, a stretch of approximately 30 μm was selected on secondary dendrites originating at the branch point from the primary dendrite. Only secondary dendrites were considered to reduce variability. Dendritic length was measured using the ImageJ plugin, Simple Neurite tracer, and spine density manually counted using the Cell Counter plugin.
The above findings implicate CLK2 overexpression as a specific anomaly that is causative for attenuated Akt activity in neurons deficient for Shank3. Consequently, inhibiting CLK2 activity or directly activating Akt would restore neuronal impairments associated with Shank3 loss of function. First, a small-molecule Akt-activator, SC79, was tested for its ability to restore Akt phosphorylation (FIG. 5A). SC79 binds directly to Akt to facilitate an ‘open’ conformation of the protein that is accessible to upstream activating kinases (eg. PDK1). This obviates the need for PtdIns(3,4,5)P3 (PIP3) production and recruitment of Akt to the plasma membrane (Rodgers, Cell Metab. 11, 23-34, 2010). […] Decreased principal neuron dendritic spine density has frequently been observed in Shank3 loss of function models (Durand et al., 2007, Nature Genetics 39: 25-27; Peca et al., 2011, Nature 472: 437-442; Verpelli et al., 2011, The Journal of Biological Chemistry 286: 34839-34850). Knock-down of Shank3 in hippocampal organotypic slice cultures, via biolistic transfection of shRNA vectors, faithfully recapitulated this phenotype in CA1 pyramidal neurons, whereby a two-fold reduction in apical dendrite spine density resulted (FIG. 6A). […]

CLK2 = experiment: Western blot of CLK2 protein expression in primary neurons; assay type: cell-based, rat
Text: E18 primary rat cortical neurons were dissected, cultured and infected 6 days after plating (DIV6) with indicated lentiviruses at MOI 10, as previously described (Proenca et al., 2013). Lentiviruses were produced by calcium phosphate transfection of HEK293T cells with packaging plasmids (Life Technologies) and transfer plasmid in 10 cm dishes. Cells were transferred to fresh medium 6 hrs. post-transfection. Four days post-transfection, the cell medium was collected and pooled from several dishes, cleared of cellular debris by 0.45 μm filtration, and concentrated 100× by centrifugation at 19,000 g for 90 min in a Beckman Ultracentrifuge using a SW28/SW32 rotor. Pellets were suspended in PBS/0.5% BSA and viral titer was determined by ELISA quantification of viral p24 antigen (Zeptometrix Corp, USA). For shRNA plasmid generation, oligonucleotides were annealed and ligated into lentiviral transfer plasmid pLKO.1-GFP vector at the AgeI/EcoRI sites. The target sequences of shRNAs that target rat and mouse Shank3 (5′-3′) are: […] (SEQ ID NO: 1), […] (SEQ ID NO: 2), and […] (SEQ ID NO: 3). The latter was previously reported (Verpelli et al., 2011). A luciferase-targeting sequence was used as an shRNA control: […] (SEQ ID NO: 4).
For immunoprecipitation (IP) of HA-tagged Akt, neurons were lysed in IP buffer (20 mM Tris-HCl pH 7.4, 3 mM EDTA, 3 mM EGTA, 150 mM NaCl, 0.5% NP-40, and protease/phosphatase inhibitor cocktails (Roche)). Lysates were cleared by centrifugation at 13,000 rpm for 10 min and lysates normalized for protein abundance were immunoprecipitated with rabbit HA-tag antibody for 1 h at 4° C. Immuno-complexes were then captured by incubation for an additional 1 hr with Protein A agarose beads (Roche). Beads were washed three times with IP buffer and bound proteins were eluted with 2×SDS-PAGE sample buffer, then boiled for 5 min. […]

Akt = experiment: Western blot of Akt phosphorylation in rat primary cortical neurons (Shank3 knock down vs control); assay type: cell-based; conditions: DIV 16
Text: E18 primary rat cortical neurons were dissected, cultured and infected 6 days after plating (DIV6) with indicated lentiviruses at MOI 10, as previously described (Proenca et al., 2013). Lentiviruses were produced by calcium phosphate transfection of HEK293T cells with packaging plasmids (Life Technologies) and transfer plasmid in 10 cm dishes. Cells were transferred to fresh medium 6 hrs. post-transfection. Four days post-transfection, the cell medium was collected and pooled from several dishes, cleared of cellular debris by 0.45 μm filtration, and concentrated 100× by centrifugation at 19,000 g for 90 min in a Beckman Ultracentrifuge using a SW28/SW32 rotor. Pellets were suspended in PBS/0.5% BSA and viral titer was determined by ELISA quantification of viral p24 antigen (Zeptometrix Corp, USA). For shRNA plasmid generation, oligonucleotides were annealed and ligated into lentiviral transfer plasmid pLKO.1-GFP vector at the AgeI/EcoRI sites. The target sequences of shRNAs that target rat and mouse Shank3 (5′-3′) are: […] […] (SEQ ID NO: 2), and […] (SEQ ID NO: 3). The latter was previously reported (Verpelli et al., 2011). A luciferase-targeting sequence was used as an shRNA control: […] (SEQ ID NO: 4).
For immunoprecipitation (IP) of HA-tagged Akt, neurons were lysed in IP buffer (20 mM Tris-HCl pH 7.4, 3 mM EDTA, 3 mM EGTA, 150 mM NaCl, 0.5% NP-40, and protease/phosphatase inhibitor cocktails (Roche)). Lysates were cleared by centrifugation at 13,000 rpm for 10 min and lysates normalized for protein abundance were immunoprecipitated with rabbit HA-tag antibody for 1 h at 4° C. Immuno-complexes were then captured by incubation for an additional 1 hr with Protein A agarose beads (Roche). Beads were washed three times with IP buffer and bound proteins were eluted with 2×SDS-PAGE sample buffer, then boiled for 5 min. For IP and analysis of ubiquitinated Myc-Clk2, neurons were lysed in Ubiquitin IP buffer (20 mM Tris-HCl pH 7.4, 3 mM EDTA, 3 mM EGTA, 150 mM NaCl, 1% Triton X-100, protease/phosphatase inhibitor cocktails (Roche), 5 mM N-ethylmaleimide, and 3 mM iodoacetamide) containing 1% SDS. Lysates were boiled for 20 min to denature proteins and then centrifuged for 10 min at 13,000 rpm. Lysates were subsequently diluted to 0.1% SDS with Ubiquitin IP buffer and immunoprecipitated with Myc antibody for 1 h. Complexes were then captured by addition of Protein G agarose (Roche) and additional 1 h incubation. Beads were washed 3× and eluted with 2×SDS-PAGE sample buffer, then boiled for 5 min. Samples prepared for SDS-PAGE were then resolved on 4-12% Novex gels (Life Technologies), transferred to PVDF membranes, blocked in 5% low-fat milk in TBS/0.1% Tween-20, and incubated overnight with primary antibodies. After washing and 1 h incubation with secondary antibodies, proteins were visualized by Chemiluminescent detection (Amersham-GE Healthcare Life Sciences).
To determine whether Shank3 deficiency impacts the PI3K-Akt-mTOR signaling pathway (FIG. 1A, gray highlight), lentiviral-mediated delivery of shRNAs was used to knock-down Shank3 in rat primary cortical neuron cultures. Cultured rat primary cortical neurons were transduced with lentiviruses encoding control shRNA or Shank3-shRNA at six days in vitro (DIV 6) and treated with BDNF (50 ng/ml) for 15 or 30 min at 14-16 days in vitro (DIV 14-16). Cell lysates were prepared in RIPA buffer prior to resolution by SDS-PAGE and Western blotting.
Cortical neurons, transduced with shRNA-expressing lentiviruses on DIV 6, were treated with 50 ng/ml BDNF or okadaic acid (100 nM) on DIV 16 and cell lysates were resolved by SDS-PAGE, followed by Western blotting.

PMDS neurons = conditions: cited from earlier work
Shank3 knock-out mice = conditions: cited from earlier work
PMDS patients = conditions: pilot studies; cited from earlier work

## O=c1[nH]c2ccccc2n1C1CCN(Cc2ccc(-c3nc4cc5[nH]cnc5cc4nc3-c3ccccc3)cc2)CC1 [Akti]
CA1 pyramidal neurons; Shank3 knock down neurons, 10 μM Akti included in TG003 treatment
  effect of TG003 on spine density with Akt inhibitor: blocked
CA1 pyramidal neurons; Thy1-mGFP transfected slice cultures, 10 μM Akti 24 h, fixed DIV14
  dendritic spine density: sufficient to reduce dendritic spine density

## CC(C)C[C@@H](C=O)NC(=O)[C@H](CC(C)C)NC(=O)[C@H](CC(C)C)NC(=O)OCc1ccccc1 [MG132] (Cbz-Leu-Leu-Leu-aldehyde)
CLK2; control cells, 2.5 or 20 μM MG132, 30 minutes
  CLK2 protein level: rapid increase of CLK2 in control cells

## C=C1[C@@H](O)[C@@H]2O[C@]3(CC[C@H](/C=C/[C@@H](C)[C@@H]4CC(C)=C[C@@]5(O[C@H](C[C@@](C)(O)C(=O)O)CC[C@H]5O)O4)O3)CC[C@H]2O[C@@H]1[C@@H](O)C[C@H](C)[C@H]1O[C@@]2(CCCCO2)CC[C@H]1C [okadaic acid]
Akt; okadaic acid 100 nM
  increase of Akt T308 phosphorylation in Shank3 knock down neurons versus increase in control neurons: two-fold greater
Akt; okadaic acid 100 nM, alone or with 50 ng/ml BDNF, control and Shank3 knock down neurons
  Akt T308 phosphorylation: enhanced Akt T308 phosphorylation in both control and Shank3 knock down neurons

## IGF-1: insulin-like growth factor-1
PMDS neurons
  synaptic impairment: alleviated
Shank3 knock-out mice
  synaptic and motor deficits: alleviated synaptic and motor deficits in Shank3 knock-out mice
PMDS patients
  motor, cognitive and social impairments: beneficial
CA1 pyramidal neurons; Shank3 knockdown neurons, 1 μg/ml IGF-1 24 h, with or without 10 μM Akti, fixed DIV 14
  dendritic spine density: restored normal dendritic spine density to Shank3 knockdown neurons, in an Akt-dependent manner

## insulin: insulin
PMDS patients
  motor, cognitive and social impairments: beneficial

## wild type B56β: Flag-tagged wild type B56β regulatory subunit of PP2A, expressed by lentiviral transduction
Akt; Shank3 knock down neurons, lentiviral co-expression of Flag-tagged B56β, 50 ng/ml BDNF
  Akt phosphorylation: had no effect

B1: BDNF: brain derived neurotrophic factor (protein, UniProt P23560 19-247, looked up)
Neurotrophic factor BDNF …: APMKEANIRGQGGLAYPGVRTHGTLESVNGPKAGSRGLTSLADTFEHVIEELLDEDQKVRPNEENNKDADLYTSRVMLSSQVPLEPPLLFLLEEYKNYLDAANMSMRVRRHSDPARRGELSVCDSISEWVTAADKKTAVDMSGGTVTVLEKVPVSKGQLKQYFYETKCNPMGYTKEGCRGIDKRHWNSQCRTTQSYVRALTMDSKKRIGWRFIRIDTSCVCTLTIKRGR
CLK2; Shank3 knock down neurons, BDNF treatment
  CLK2 protein level: elicited no significant further increase of CLK2 levels
CLK2; control neurons, BDNF 30 minutes
  CLK2 protein level: induced the accumulation of CLK2 in control neurons
